Results from paper PMC2671622 (Journal of Experimental Botany, 2009).

target: truncated recombinant AtGABA-T (no-target GABA-T) (Arabidopsis thaliana, UniProt Q94CE5); assay: coupled SSADH assay, NADH at […] nm; assay type: biochemical
Sequence (Q94CE5 37-504): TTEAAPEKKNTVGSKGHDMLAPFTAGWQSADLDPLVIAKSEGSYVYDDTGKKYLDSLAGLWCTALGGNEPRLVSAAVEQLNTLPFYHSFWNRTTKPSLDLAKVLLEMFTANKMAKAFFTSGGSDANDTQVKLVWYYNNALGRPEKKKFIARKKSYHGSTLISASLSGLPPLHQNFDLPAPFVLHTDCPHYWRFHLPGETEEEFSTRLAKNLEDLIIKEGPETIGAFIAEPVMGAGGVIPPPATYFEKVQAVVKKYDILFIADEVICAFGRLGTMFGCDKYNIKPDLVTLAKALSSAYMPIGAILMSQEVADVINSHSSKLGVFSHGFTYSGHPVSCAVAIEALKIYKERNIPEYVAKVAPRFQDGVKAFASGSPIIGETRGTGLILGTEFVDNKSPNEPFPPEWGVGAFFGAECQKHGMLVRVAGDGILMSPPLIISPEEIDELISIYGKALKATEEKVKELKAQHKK

Ki [µM] | SMILES
3700 ± 460 | NCC(=O)O [Glycine]
550 ± 130 | NCCC(=O)O [β-Alanine]
460 ± 120 | NCCC[C@H](N)C(=O)O [Ornithine]
620 ± 160 | C=CC(N)CCC(=O)O (stereo not shown) [Vigabatrin]
